Test results: article PMC7774954, “Interactomic affinity profiling by holdup assay: Acetylation and distal residues impact the PDZome-binding specificity of PTEN phosphatase” (PLoS ONE, 2020)
pKd: −log10 of the molar value. *1 amine or outer side, *2 acyl side, *3 side chain or, on linkers, in order; H or OH if unused. Where a SMILES comes first, the peptide text is derived from it. The star is where a group is joined. X1 = O=C(CCCC[C@@H]1SC[C@@H]2NC(=O)N[C@@H]21)NCCCOCCOCCOCCCN*; Suc = O=C(CCC(=O)[*:2])[*:1]

Key:
[1] = test system: LNX1-3; experiment: Holdup assay, LNX1-3; assay type: binding, human
[2] = test system: GRIP2-1; experiment: Holdup assay, GRIP2-1; assay type: binding, human
[3] = molecular target: T1, PTPN13 PDZ 2 (Homo sapiens, UniProt Q12923); experiment: Holdup assay, PTPN13-2; assay type: binding; conditions: for BI: PDZ domain PTPN13-2
T1 construct: made in house; host or cells: E. coli
T1 sequence (Q12923 1368-1452 limits assumed): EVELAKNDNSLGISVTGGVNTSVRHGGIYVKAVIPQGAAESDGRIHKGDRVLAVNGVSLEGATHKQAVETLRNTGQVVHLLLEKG
Procedure: (§1) The holdup assay was performed on a Tecan freedom Evo200 robot with 384-well plates in singlicate for the three 11-mer PTEN variants and the 13-mer PTEN peptide as described in [31, 32]. Briefly, prior to interaction assay, 2.5 μL of streptavidin resin was saturated in each well with 20 μL of biotinylated PBM peptides (42 μM) and then washed twice with an excess of free biotin, while the reference resin was incubated only with biotin. Right before the holdup experiment, the PDZ library was spiked with an internal standard of lysozyme. Then, the biotin- or PBM-saturated resin was incubated, each in a distinct well of a 384-well plate, with complete cell lysates diluted so that the concentration of the tag-PDZ present in the crude extract is adjusted at 4 μM. After a sufficient time to reach complex equilibrium (15 min.), a fast and mild filtration step is performed and the tag-PDZ concentrations were measured by capillary electrophoresis instrument (LabChip GXII, PerkinElmer, Massachusets, USA). Standard markers were used to convert migration time into molecular weight on the LabChip software and inappropriate molecular weight markers were corrected or excluded.
(§2) For filtered data, the BI was extracted with the following equation (Eq 1) that estimates the depleted fraction after superimposition of the sample and reference electropherograms: BI=Iref−Ilig/Iref (1) where Iref and Ilig are the intensities of the tag-PDZ peaks measured, for each PDZ domain/PBM peptide interaction pair, in the biotin reference and the PBM electropherograms, respectively.
(§3) BIs were transformed into dissociation constants (KD) using the following formula: KD=([PDZtot]−BI·[PDZtot])·([PBMtot]−BI·[PDZtot])/BI·[PDZtot] (2) where [PDZtot] and [PBMtot] correspond to the total concentrations of the PDZ domain (usually around 4 μM) and the PBM peptide used during the assay. Since the PBMtot concentration in the resin during the holdup assay parameter may differ from one peptide to another and remains unknown, it is impossible to directly convert BI values into KD constants. We systematically determined the KD constants for a subset of PDZ/PBM pairs by competitive FP. […] For each PBM, the average peptide concentration was calculated after outlier rejection based on the absolute distances from the median as compared to three times the standard deviation (3σ rule), with never more than 2 values rejected.

[4] = test system: GRIP1-4; experiment: Holdup assay, GRIP1-4; assay type: binding, human
[5] = molecular target: T2, LIMK2-1 (Homo sapiens, UniProt P53671); experiment: Holdup assay, LIMK2-1; assay type: binding
T2 sequence (P53671 152-239): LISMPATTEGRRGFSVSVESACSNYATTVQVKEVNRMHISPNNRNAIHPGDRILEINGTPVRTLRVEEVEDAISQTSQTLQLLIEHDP

[6] = test system: AHNAK2-1; experiment: Holdup assay, AHNAK2-1; assay type: binding, human
[7] = test system: INADL-3; experiment: Holdup assay, INADL-3; assay type: binding, human
[8] = molecular target: T3, DLG4 PDZ 3 (Homo sapiens, UniProt P78352); experiment: Holdup assay, DLG4-3; assay type: binding
T3 construct: made in house; host or cells: E. coli
Procedure: as §1, §2, §3

[9] = test system: HTRA2-1; experiment: Holdup assay, HTRA2-1; assay type: binding, human
[10] = test system: human PDZome; experiment: Promiscuity / specificity index from PDZome affinity profile (combined holdup and FP); assay type: binding; conditions: for Nb PDZ (BI): Val for BI=0.2; for 1/2PDZ: number of PDZ, 1/2PDZ Min and Max; for number of PDZ domains above the half-maximal binding affinity: relative to number of tested and validated PDZ domains; for Max Log(Kd): maximum over PDZome
Excerpt: Using the mean concentration obtained above for each of the different PTEN peptides, the experimental BI values recorded by holdup for all tested domain/peptide pairs were subsequently transformed into equilibrium dissociation constants. […] Thereafter, affinity data measured by FP assay were also included in the […] for the PDZ domains (MAST1-1, MAST2-1, SNX27-1, MAGI1-2 and GRID2IP-2) for which holdup data were missing according to the low quality score in the filtering step. These interaction data detected only by competitive FP and not by holdup represented 1 to 2 additional PDZ binders per PTEN construct. […] This transformation into affinity values makes then possible to compare binding affinity profiles obtained for different peptides and potentially different batches.
The above described holdup-FP strategy delivers binding affinity constants, a universal chemical property. […] We then looked for a numerical parameter that would express, in a quantitative way, this specificity or promiscuity information. For this purpose, we calculated for each profile the difference between the maximal and the minimal significant affinity values detected by the assay, ΔGmax − ΔGmin. Next, we introduced a threshold affinity, called "half-maximal binding affinity" defined as follows: ΔGhalf = ΔGmin + (ΔGmax − ΔGmin)/2. […] Alternatively, the specificity index IS could be defined as 1 –IP. Therefore, the lower the promiscuity index, the higher the specificity index, the higher the specificity of the PBM for a limited number of selected domains across the PDZome.
We probed the specificity index on the PDZome-binding profiles of the four PTEN peptides. […] This would indicate, in qualitative terms, that the PTEN_13 peptide selects PDZ domains in a more specific -less promiscuous- way than that of the three of other peptides. […] One should note that it was not possible to determine index uncertainty by error propagation starting from holdup data, since BI values have been recorded in singlicate. However, the dispersion of log(KD) values around the perfect theoretical correlation line in the correlation plot (Fig 5B) is representative of global IS uncertainty, which was therefore estimated by averaging the distances between the experimental dots and the theoretical diagonal. Details about uncertainties and Fisher’s test calculations are provided in Supp. Materials and S1 File.
Uncertainty on IS was estimated according to several steps described below:
- Since it’s not possible strictly talking to propagate uncertainty for data recorded in singlicate, we considered that log(KD) uncertainty is contained in the correlation plot [log(KD,HU) vs. log(KD,FP)] when comparing the experimental data with the perfect theoretical correlation (the dotted diagonal line).
- Originally, we estimated the 1/2 PDZ index by counting the number of PDZ with a log(KD) value above the threshold calculated with the formulae developed in the manuscript. Then we did the same type of counting for [threshold value + log(KD) uncertainty] and for [threshold value - log(KD) uncertainty].
- From the difference in the two counts is estimated the index uncertainty.
Due to the low number of PDZ occurrences, a Fisher's exact test was preferred to estimate the p-value. Calculations were performed online with http://astatsa.com using default parameters.

[11] = test system: ARHGAP23-1; experiment: Holdup assay, ARHGAP23-1; assay type: binding, human

T3 sequence (P78352 313-393 limits assumed): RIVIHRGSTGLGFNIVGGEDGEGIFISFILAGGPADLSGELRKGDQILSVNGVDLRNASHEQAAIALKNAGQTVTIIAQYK

Row | Structure (SMILES) | BI [1] | BI [2] | LogKD [2] | BI [3] | BI [4] | LogKD [4] | BI [5] | LogKD [5] | BI [6] | LogKD [6] | BI [7] | LogKD [7] | BI [8] | BI [9] | LogKD [9] | Nb PDZ (BI) [10] | 1/2PDZ [10] | number of PDZ domains above the half-maximal binding affinity [10] | BI [11] | LogKD [11] | also measured
1 | CC[C@H](C)[C@H](NC(=O)[C@H](CCC(N)=O)NC(=O)[C@@H](NC(=O)[C@H](Cc1c[nH]cn1)NC(=O)[C@H](CCC(N)=O)NC(=O)[C@H](CC(=O)O)NC(=O)[C@H](CCC(=O)O)NC(=O)[C@H](CC(=O)O)NC(=O)CCC(=O)NCCCOCCOCCOCCCNC(=O)CCCC[C@@H]1SC[C@@H]2NC(=O)N[C@@H]21)[C@@H](C)O)C(=O)N[C@H](C(=O)N[C@@H](CCCCNC(C)=O)C(=O)N[C@H](C(=O)O)C(C)C)[C@@H](C)O [PTEN_Ac] | 0.072 | -0.038 | 3.605 | 0.044 | 0.038 | 3.605 | -0.087 | 3.605 | 0.034 | 3.605 | -0.021 | 3.605 | -0.024 | -0.074 | 3.605 | 43 | 12 | 12 | -0.108 | 3.605 | LogKD [1]: 3.605
2 | CC[C@H](C)[C@H](NC(=O)[C@H](CCC(N)=O)NC(=O)[C@@H](NC(=O)[C@H](Cc1c[nH]cn1)NC(=O)[C@H](CCC(N)=O)NC(=O)[C@H](CC(=O)O)NC(=O)[C@H](CCC(=O)O)NC(=O)[C@H](CC(=O)O)NC(=O)CCC(=O)NCCCOCCOCCOCCCNC(=O)CCCC[C@@H]1SC[C@@H]2NC(=O)N[C@@H]21)[C@@H](C)O)C(=O)N[C@H](C(=O)N[C@@H](CCCCN)C(=O)N[C@H](C(=O)O)C(C)C)[C@@H](C)O [PTEN_11] | -0.02 | -0.003 | 3.519 | 0.184 | 0.028 | 3.519 | 0.05 | 3.519 | -0.026 | 3.519 | -0.001 | 3.519 | -0.018 | 0.07 | 3.519 | 19 | 9 | 9 | -0.109 | 3.519 | LogKD [1]: 3.519; Max Log(Kd) [10]: 4.90
3 | CC[C@H](C)[C@H](NC(=O)[C@H](CCC(N)=O)NC(=O)[C@@H](NC(=O)[C@H](Cc1c[nH]cn1)NC(=O)[C@H](CCC(N)=O)NC(=O)[C@H](CC(=O)O)NC(=O)[C@H](CCC(=O)O)NC(=O)[C@H](CC(=O)O)NC(=O)[C@H](Cc1ccccc1)NC(=O)[C@@H]1CCCN1C(=O)CCC(=O)NCCCOCCOCCOCCCNC(=O)CCCC[C@@H]1SC[C@@H]2NC(=O)N[C@@H]21)[C@@H](C)O)C(=O)N[C@H](C(=O)N[C@@H](CCCCN)C(=O)N[C@H](C(=O)O)C(C)C)[C@@H](C)O [PTEN_13] ({X1-Suc}-PFDEDQHTQITKV-OH) | 0.016 | -0.085 |  | 0.482 | -0.039 |  | 0.152 |  |  |  | 0.031 |  | -0.097 | -0.097 |  | 25 | 4 | 4 | -0.062 |  | pKd [3]: 4.79; specificity (in words) ([10]; compared with the three 11-mer peptides): slight increased specificity; Max Log(Kd) [10]: 5.89
4 | CC[C@H](C)[C@H](NC(=O)[C@H](CCC(N)=O)NC(=O)[C@@H](NC(=O)[C@H](Cc1c[nH]cn1)NC(=O)[C@H](CCC(N)=O)NC(=O)[C@H](CC(=O)O)NC(=O)[C@H](CCC(=O)O)NC(=O)[C@H](CC(=O)O)NC(=O)CCC(=O)NCCCOCCOCCOCCCNC(=O)CCCC[C@@H]1SC[C@@H]2NC(=O)N[C@@H]21)[C@@H](C)O)C(=O)N[C@H](C(=O)N[C@@H](CCCNC(=N)N)C(=O)N[C@H](C(=O)O)C(C)C)[C@@H](C)O [PTEN_KR] ({X1-Suc}-DEDQHTQITRV-OH) |  | -0.04 | 3.655 | 0.138 | -0.042 | 3.655 | -0.042 | 3.655 | -0.009 | 3.655 | -0.042 | 3.655 | 0.043 | -0.042 | 3.655 | 38 | 9 | 9 | -0.018 | 3.655 | 
